The structures appear in SMILES notation. Where a SMILES comes first, the peptide text is derived from it. [ ]: non-standard residue; d: D form. The star is where a group is joined. AllylGly = C=CC[C@H](N)C(=O)O; Boc = CC(C)(C)OC(=O)*; NHBn = c1ccc(CN*)cc1; NHtBu = CC(C)(C)N*; ClAc = O=C(CCl)*

The target of one assay is SARS-CoV-2 PL^pro (Severe acute respiratory syndrome coronavirus 2, UniProt P0DTD1). Kind of assay: PL^pro enzymatic assay. Format: biochemical.
For assay [1], the system named is SARS-CoV-2 UC-1075 strain. Kind of assay: SARS-CoV-2 antiviral assay in Vero cells, strain UC-1075. Format: cell-based. Particulars: Severe acute respiratory syndrome coronavirus 2, UC1075, Vero, 120 h, read-out: Antiviral activity EC50 UC-1075 #1 strain Vero cells.
A further assay relates to varicella zoster virus. Kind of assay: Antiviral activity over Vero cells infected with VZV. It counts as cell-based. The conditions noted are these: data not shown.
The test system of a further assay is cytomegalovirus. Kind of assay: Antiviral activity over Vero cells infected with CMV. Particulars: data not shown. Format: cell-based.
Assay [2] relates to SARS-CoV-2 UC-1074 strain. Kind of assay: SARS-CoV-2 antiviral assay in Vero cells, strain UC-1074. It counts as cell-based. The conditions noted are these: over two different SARS-CoV-2 strains as worded.

Turning to `CC(C)(C)NC(=O)[C@H](Cc1c[nH]c2ccccc12)NC(=O)[C@@H]1CCCN1C(=O)OC(C)(C)C` [Compound 7, tert-butyl 2-((1-(tert-butylamino)-3-(1H-indol-3-yl)-1-oxopropan-2-yl)carbamoyl)pyrrolidine-1-carboxylate] (Boc-Pro-Trp-NHtBu), the IC50 (commonly the concentration that inhibits the measured activity by half) at SARS-CoV-2 PL^pro was more than 25 µM.
Consider `CC(C)(C)NC(=O)[C@H](Cc1c[nH]c2ccccc12)NC(=O)[C@H](Cc1ccccc1)NCc1ccc(-c2ccccc2)cc1` [Compound 22, (S)-2-(([1,1′-biphenyl]-4-ylmethyl)amino)-N-((S)-1-(tert-butylamino)-3-(1H-indol-3-yl)-1-oxopropan-2-yl)-3-phenylpropanamide], for which, on SARS-CoV-2 PL^pro, the 50% inhibitory concentration (IC50) is more than 25 µM.
Same read-out and setting: under `CC(C)C[C@H](NCc1ccc(-c2ccccc2)cc1)C(=O)N[C@@H](Cc1c[nH]c2ccccc12)C(=O)NC(C)(C)C` [Compound 23, 2-(([1,1′-biphenyl]-4-ylmethyl)amino)-N-(1-(tert-butylamino)-3-(1H-indol-3-yl)-1-oxopropan-2-yl)-4-methylpentanamide] stands more than 25 µM.
The compound `C#CC[C@H](NCc1ccc(-c2ccccc2)cc1)C(=O)N[C@@H](Cc1c[nH]c2ccccc12)C(=O)NC(C)(C)C` [Compound 24, (S)-2-(([1,1′-biphenyl]-4-ylmethyl)amino)-N-((S)-1-(tert-butylamino)-3-(1H-indol-3-yl)-1-oxopropan-2-yl)pent-4-ynamide] registered a half-inhibitory concentration (IC50) against SARS-CoV-2 PL^pro of more than 25 µM.
As for `CC(C)C[C@H](NCc1ccc(-c2ccccc2)cc1)C(=O)N[C@@H](Cc1c[nH]c2ccccc12)C(=O)NCc1ccccc1` [Compound 25, (S)-2-(([1,1′-biphenyl]-4-ylmethyl)amino)-N-((S)-1-(benzylamino)-3-(1H-indol-3-yl)-1-oxopropan-2-yl)-4-methylpentanamide], the concentration giving a half-maximal response (EC50) (in general, the midpoint of the concentration-response curve) in assay [1] is more than 20 µM. Further, on SARS-CoV-2 PL^pro, the IC50 is more than 25 µM.
For `C=CC[C@H](NCc1ccccc1)C(=O)N[C@@H](Cc1c[nH]c2ccccc12)C(=O)NCc1ccc(-c2ccccc2)cc1` [Compound 26, (S)–N-((S)-1-(([1,1′-biphenyl]-4-ylmethyl)amino)-3-(1H-indol-3-yl)-1-oxopropan-2-yl)-2-(benzylamino)pent-4-enamide], the IC50 against SARS-CoV-2 PL^pro was more than 25 µM.
`C#CC[C@H](NCc1ccccc1)C(=O)N[C@@H](Cc1c[nH]c2ccccc12)C(=O)NCc1ccc(-c2ccccc2)cc1` [Compound 27, (S)–N-((S)-1-(([1,1′-biphenyl]-4-ylmethyl)amino)-3-(1H-indol-3-yl)-1-oxopropan-2-yl)-2-(benzylamino)pent-4-ynamide]: the “Antiviral effect over varicella zoster virus” value with varicella zoster virus was “no effects”. The compound further yielded an IC50 against SARS-CoV-2 PL^pro of more than 25 µM. Also, in the assay with cytomegalovirus, the “Antiviral effect over cytomegalovirus” value is reported as “no effects”.
At SARS-CoV-2 PL^pro, `C#CC[C@H](NCCC)C(=O)N[C@@H](Cc1c[nH]c2ccccc12)C(=O)NCc1ccc(-c2ccccc2)cc1` [Compound 28, (S)–N-((S)-1-(([1,1′-biphenyl]-4-ylmethyl)amino)-3-(1H-indol-3-yl)-1-oxopropan-2-yl)-2-(propylamino)pent-4-ynamide] displayed an IC50 of more than 25 µM.
As to `C=CC[C@H](NC(=O)CCl)C(=O)N[C@@H](Cc1c[nH]c2ccccc12)C(=O)NCc1ccccc1` [Compound 29, (S)–N-((S)-1-(benzylamino)-3-(1H-indol-3-yl)-1-oxopropan-2-yl)-2-(2-chloroacetamido)pent-4-enamide] (ClAc-[AllylGly]-Trp-NHBn), the “Antiviral effect over varicella zoster virus” value with varicella zoster virus was “no effects”. The “Cellular antiviral potency relative to compound 27 (fold higher)” value in assay [2] is on record as 28 fold. In addition, in the assay with cytomegalovirus, the “Antiviral effect over cytomegalovirus” value is listed as “no effects”.
Regarding `C#CC[C@H](NC(=O)OC(C)(C)C)C(=O)N(Cc1ccccc1)Cc1cn(C)c2ccc(C(=O)OC)cc12` [Compound 35, (S)-Methyl 3-((N-benzyl-2-((tert-butoxycarbonyl)amino)pent-4-ynamido)methyl)-1-methyl-1H-indole-5-carboxylate], on SARS-CoV-2 PL^pro, the IC50 was more than 25 µM.

(Values after article PMC8457654 (European Journal of Medicinal Chemistry, 2021).)
